This passage reports inhibition results from patent publication US9408389B2 (Rohm and Haas Company, priority 2013, dated 2016).

As usually defined, the inhibition is how much of the control response was suppressed. A high value points to a response far below the control.

Molecules are shown by their SMILES.

In test [1] the test system is Stichococcus bacillaris SAG 379-1a / CCAP 379/1a. Nature of the test: Algal efficacy testing of dry paint films (modified ASTM D5589-09), Stichococcus. Format: cell-based. The settings on record: 672 h. The procedure:
(§1) Slurries containing 33% flurochloridone were post added to a white, acrylic/silicone based outdoor paint free of biocides to give a total active ingredient concentration of 10000 and 1000 ppm respectively. These paints were then diluted with an antimicrobial free acrylic/silicone based paint and mixed to prepare targeted concentrations of antimicrobial compounds for the testing. The total biocides concentrations tested were 125, 250, 500, 1000, 2000 and 5000 ppm. After biocides addition or dilution, the paints were mixed 90 seconds with the horse power shaker (AXEL 75M3372/Agitateur SO-10MI) until uniformity was achieved. Paints containing different antimicrobial compounds at the same levels were mixed together in order to obtain the desired ratio of antimicrobial compounds. After one day, the paints were applied to Schleicher & Schuell filter paper at 280 μm wet film thickness and dried for 3 days at room temperature avoiding direct exposure to sunlight. Square discs (1.6 cm×1.6 cm) were cut out from each panel and were used as the substrate for algal efficacy tests. This sample size allowed for an agar border when the sample disc was placed into the well of the test plate. […]
(§2) At the end of the four week incubation period, the samples were scored for percent inhibition regarding visible algal growth compared to the blank sample (0% inhibition).
(§3) The SI is calculated based on F. C. […]

The next test relates to Chlorella sp. ATCC 7516. Briefly: Algal efficacy testing of dry paint films (modified ASTM D5589-09), Chlorella. The class given is cell-based. The settings on record: 672 h. As to the method: as §1, §2, §3

As to `O=C1C(Cl)C(CCl)CN1c1cccc(C(F)(F)F)c1` (stereo not shown) [Flurochloridone, 3-chloro-4-(chloromethyl)-1-[3-(trifluoromethyl)phenyl]-2-pyrrolidinone], the inhibition at 2000 ppm is 50% in test [1] (Stichococcus, total conc 2000 ppm in paint, 4 weeks, visible algal growth vs blank) and 60% with Chlorella sp. ATCC 7516 (total conc 2000 ppm in paint, 4 weeks, visible algal growth vs blank).
For the compound `O=c1[nH]c2c(c(=O)n1C1CCCCC1)CCC2` [Lenacil, 3-cyclohexyl-1,5,6,7-tetrahydrocyclopentapyrimidine-2,4(3H)-dione], the inhibition at 5000 ppm in test [1] stood at 65%; in the test with Chlorella sp. ATCC 7516, 45%.
